# Measurements as given in patent publication US8999661B2, “Compositions for detecting cell death and methods of use thereof” (Dana-Farber Cancer Institute, Inc., priority 2008, dated 2015).
# B1: labeled MDH: Cy5.5-labeled E. coli malate dehydrogenase (Alexa 680-labeled per FIG. 6 legend) (conjugate, UniProt P61889 1-312, looked up)
# Malate dehydrogenase: MKVAVLGAAGGIGQALALLLKTQLPSGSELSLYDIAPVTPGVAVDLSHIPTAVKIKGFSGEDATPALEGADVVLISAGVARKPGMDRSDLFNVNAGIVKNLVQQVAKTCPKACIGIITNPVNTTVAIAAEVLKKAGVYDKNKLFGVTTLDIIRSNTFVAELKGKQPGEVEVPVIGGHSGVTILPLLSQVPGVSFTEQEVADLTKRIQNAGTEVVEAKAGGGSATLSMGQAAARFGLSLVRALQGEQGVVECAYVEGDGQYARFFSQPLLLGKNGVEERKSIGTLSAFEQNALEGMLDTLKKDIALGEEFVNK
# modifications: Cy5.5 or Alexa 680 label
# B2: Annexin V-Alexa750: Annexin V (Biovision) conjugated to Alexa750-NHS at a labeling ratio of 2:1 (conjugate, UniProt P08758 2-320, looked up)
# Annexin A5: AQVLRGTVTDFPGFDERADAETLRKAMKGLGTDEESILTLLTSRSNAQRQEISAAFKTLFGRDLLDDLKSELTGKFEKLIVALMKPSRLYDAYELKHALKGAGTNEKVLTEIIASRTPEELRAIKQVYEEEYGSSLEDDVVGDTSGYYQRMLVVLLQANRDPDAGIDEAQVEQDAQALFQAGELKWGTDEEKFITIFGTRSVSHLRKVFDKYMTISGFQIEETIDRETSGNLEQLLLAVVKSIRSIPAYLAETLYYAMKGAGTDDHTLIRVMVSRSEIDLFNIRKEFRKNFATSLYSMIKGDTSGDYKKALLLLCGEDD
# modifications: Alexa Fluor 750 label
# B3: labeled ADH: Cy5.5-labeled yeast alcohol dehydrogenase (Alexa 680-labeled per FIG. 6 legend) (conjugate, UniProt P00330 2-348, looked up)
# Alcohol dehydrogenase 1: SIPETQKGVIFYESHGKLEYKDIPVPKPKANELLINVKYSGVCHTDLHAWHGDWPLPVKLPLVGGHEGAGVVVGMGENVKGWKIGDYAGIKWLNGSCMACEYCELGNESNCPHADLSGYTHDGSFQQYATADAVQAAHIPQGTDLAQVAPILCAGITVYKALKSANLMAGHWVAISGAAGGLGSLAVQYAKAMGYRVLGIDGGEGKEELFRSIGGEVFIDFTKEKDIVGAVLKATDGGAHGVINVSVSEAAIEASTRYVRANGTTVLVGMPAGAKCCSDVFNQVVKSISIVGSYVGNRADTREALDFFARGLVKSPIKVVGLSTLPEIYEKMEKGQIVGRYVVDTSK
# modifications: Cy5.5 or Alexa 680 label
# How the values were obtained:
# [1] = test system: RS4;11 cells; assay: FACS staining of RS4;11 cells treated with NVP-LAQ824; type: cell-based; details: RS4;11, 50 nM NVP-LAQ824, 24 h
# Method: RS4;11 is a MLL-AF4 fusion transcript-positive t(4;11) pre-B ALL cell line that is highly resistant to chemotherapy and radiation. In this experiment RS4;11 cells (1×10^6) were treated with 50 nM NVP-LAQ824 (Novartis Pharma, Basel, Switzerland) for 24 h and then contacted with FITC-labeled Annexin V (Abcam, Cambridge, Mass.) or Cy5.5-labeled chicken LDH and analyzed by FACS as in Example 9. NVP-LAQ824 is a potent hydroxamic acid-derived histone deacetylase inhibitor that induces apoptosis in nanomolar concentrations in myeloid leukemia cell lines, multiple myeloma, and patient samples. Catley L et al. (2003) Blood 102:2615-22.
# In a related experiment, RS4;11 cells were treated with 50 nM NVP-LAQ824 in culture media for 24 h and then stained with FITC-labeled Annexin V or A680-labeled human LDH-B in either Annexin buffer or culture media. Apoptosis was measured by FACS analysis. Results indicated a significant difference between 11-12 percent apoptotic cells as measured with FITC-labeled Annexin V in Annexin buffer versus only 4 percent apoptotic cells as measured with FITC-labeled Annexin V in culture media. In contrast, results indicated 11-12 percent apoptotic cells as measured with A680-labeled LDH-B, whether in Annexin buffer or culture media.
# [2] = test system: HeLa cells; assay: FACS staining of camptothecin-treated apoptotic HeLa cells; type: cell-based; details: for cell staining over time (FACS): 12 h, 24 h, annexin binding buffer; for percent apoptotic cells as measured with the probe: camptothecin; for uptake by apoptotic HeLa cells (FACS) / uptake by control untreated HeLa cells (FACS): FIG. 6
# Method: HeLa cells (5×10^5 in 10 cm plates) maintained in DMEM with 10% FBS were contacted with 5 μM camptothecin to induce apoptosis. Cell staining by FITC-labeled Annexin V (Abcam, Cambridge, Mass.) or Cy5.5-labeled chicken LDH (1 μL) prepared as described in Example 1, was measured by fluorescence-activated cell sorting (FACS) analysis (with cells in annexin binding buffer (Abcam)) 12 h, 24 h, and 48 h later. Untreated HeLa cells served as negative controls.
# Staining by Annexin V is known to require the presence of calcium. […] HeLa cells treated with camptothecin to induce apoptosis as in Example 9 were stained with FITC-labeled Annexin V (Abcam, Cambridge, Mass.) or Cy5.5-labeled chicken LDH in calcium-containing Annexin buffer or in calcium-free PBS. Stained cells were analyzed by FACS analysis as in Example 9.
# HeLa cells (5×10^5 in 10 cm plates) maintained in DMEM with 10% FBS were contacted with 5 μM camptothecin to induce apoptosis. Cell staining was done in the media: (i) annexin buffer, (ii) DMEM supplemented with 1% FBS; (iii) DMEM supplemented with 2% FBS; (iii) DMEM supplemented with 5% FBS; (iv) DMEM supplemented with 10% FBS. For cell staining FITC-labeled Annexin V (Abcam, Cambridge, Mass.) or Cy5.5-labeled chicken LDH (1 μL) prepared as described in Example 1, was used to for FACS analysis (cells in annexin binding buffer (Abcam)) 48 h later. Untreated HeLa cells served as negative controls. […]
# [3] = test system: HeLa cells; assay: Confocal microscopy of stained apoptotic HeLa cells; type: cell-based
# [4] = test system: apoptotic cells; assay: Staining requirements (temperature, calcium) of cLDHB and Annexin V; type: cell-based
# Method: To determine if cLDHB is actively transported into cells, staining was performed at room temperature and at 4° C.
# A major limitation of Annexin V staining is the requirement for supra-physiological concentrations of calcium (Tait, J. F., D. F. Gibson, and C. Smith, Anal Biochem, 2004. 329: 112-9). To determine whether cLDHB staining required calcium, Annexin V and cLDHB staining was performed in PBS (without calcium or magnesium) or in Annexin Binding Buffer (with 2.5 mM calcium).
# [5] = test system: apoptotic cells; assay: Homogeneous multiwell apoptosis assay in normal growth medium; type: cell-based; details: e.g., RPMI with 10% FBS, flow cytometry or High-Content Microscopy
# [6] = test system: Ku812-Luc+ (BCR-ABL+CML blast crisis) cells; assay: In vivo imaging of chemotherapy-induced apoptosis (AMN107); parameters: species or system mice; details: 100 mg/kg IP; day 5
# Method: Subcutaneous tumors were established using Ku812-Luc+ (BCR-ABL+CML blast crisis) cells in NCr nude mice. When tumors were ˜1 cm, mice underwent bioluminescence imaging (BLI) to determine baseline tumor burden, followed by treatment with either AMN107 (nilotinib) at 100 mg/kg intraperitoneally (IP), or with vehicle. After 3 doses, animals were injected with 20 μg of LDH-Alexa750. Fluorescence imaging (FL) was performed 24 and 48 hrs after probe injection (day 4 and 5 of treatment) and BLI was repeated on day 5 of treatment (FIG. 9A).
# [7] = test system: THP-1 cells; assay: Competition for Annexin V and LDHB binding to apoptotic THP-1 cells; type: cell-based; details: probe 0.1 μM; for staining of apoptotic cells in the presence of excess unlabeled Annexin V: 5- and 10-fold excess
# Method: To determine whether physiological levels of LDH may preclude binding of a LDH probe, the ability of excess unlabeled cLDHB and Annexin V to compete for binding of apoptotic cells by FITC conjugated Annexin V and cLDHB was assessed.
# Apoptosis was induced in THP-1 cells with LAQ824 (50 nM, 18 hrs), and cells were stained with either Annexin V-FITC or cLDHB-FITC at a final concentration of 0.1 μM. For competition, staining was performed in the presence of excess unlabeled LDHB or Annexin V.
# [8] = test system: THP-1 cells; assay: Staining of THP-1 cells treated with HDAC inhibitor LAQ824; type: cell-based; details: THP-1, LAQ824 50 nM, 18 hrs
# Method: To correlate cLDHB staining with other measures of apoptosis, a fluorescent probe that binds to activated caspases (pan-caspase-FLICA, Immunochemistry Tech) was used. THP-1 cells were treated with the HDAC inhibitor LAQ824 (50 nM, 18 hrs) to induce apoptosis.
# Similarly, we asked whether the […] proteins performed comparably to purified recombinant LDH.
# [9] = test system: hepatocyte apoptosis; assay: In vivo NIR imaging of fulminant hepatic failure (anti-Fas antibody); parameters: species or system mice; details: liver region; 10 μg probe; 25 hrs after probe injection
# Method: This model was used to compare LDH to Annexin V for near infrared (NIR) imaging of apoptosis. Alexa750-NHS was conjugated to Annexin V (Biovision) and chicken LDHB (XpressBio) at a labeling ratio of 2:1 per mole of protein based on prior optimization. A total of 10 male NCr nude mice were injected with 5 μg of anti-Fas antibody (Jo2, Pharmingen), and 10 animals were injected with 5 μg of an isotype-matched control antibody. Two hours later, mice were injected with 10 μg of either LDH-Alexa750 or Annexin V-Alexa750. Mice underwent NIR fluorescence imaging (IVIS Spectrum, Caliper) 25 hrs after probe injection (FIG. 8A). After spectral unmixing and background subtraction (Living Images software package), regions of interest were used to quantify fluorescence localized to the liver region (FIG. 8A), as indicated with arrowheads.
# [10] = calcium-containing Annexin V buffer
molecule,measurement,setting,value
Cy5.5-labeled chicken LDH: chicken lactate dehydrogenase (LDH-B) labeled with Cy5.5 N-hydroxysuccinimide ester as described in Example 1,apoptosis over background levels as measured with the probe,[1],only a mild increase
same,staining compared to FITC-Annexin V,[1],comparable
same,proportion of apoptotic cells detected compared to FITC-labeled Annexin V,"[2]; HeLa, 5 μM camptothecin",comparable
same,cell staining over time (FACS),"[2]; HeLa, 5 μM camptothecin, 48 h",progressively stained positive
same,staining of apoptotic cells (FACS),[2]; [10],strongly and equally positive
same,staining of apoptotic cells (FACS),[2]; calcium-free PBS,strongly and equally positive
same,percent apoptotic cells as measured with the probe,"[2]; over the range FBS zero to 10 percent, HeLa, 48 h",about 65%
same,staining pattern (confocal microscopy),[3],punctate cytoplasmic
Annexin V: fluorescently labeled Annexin V probe used as comparator; FITC-labeled in Example 12 [reference compound],percent apoptotic cells as measured with the probe,"[2]; FBS 10 percent, HeLa, 48 h",about 15%
same,percent apoptotic cells as measured with the probe,"[2]; FBS zero, HeLa, 48 h",about 50%
same,change of staining with increasing amounts of FBS (FACS),[2]; HeLa treated with camptothecin,significantly decreased
same,staining in PBS (without calcium or magnesium) compared to Annexin Binding Buffer (2.5 mM calcium),[4],significantly decreased
same,staining / quantification of apoptosis with probe added directly to normal growth medium,[5],No Annexin V staining
"Cc1cn(-c2cc(NC(=O)c3ccc(C)c(Nc4nccc(-c5cccnc5)n4)c3)cc(C(F)(F)F)c2)cn1 [AMN107, nilotinib]",difference between treated animals and vehicle-treated controls by BLI,[6],2 log
same,tumor response by BLI,[6],tumor regression
Cy5.5-labeled Annexin V: Cy5.5-labeled Annexin V (Abcam) [reference compound],staining pattern (confocal microscopy),[3],membranous
"LDHB: LDHB not fused to GST, served as a positive control",uptake by / staining of apoptotic cells (FACS),"[2]; HeLa, 5 μM camptothecin, 48 h, FIG. 5",stained apoptotic cells
FITC-labeled chicken LDH: chicken LDH-B labeled with fluorescein isothiocyanate,staining of apoptotic cells in the presence of excess unlabeled Annexin V,[7],no effect
same,staining of apoptotic cells in the presence of excess unlabeled LDHB,[7]; up to 100-(10 μM) and 350-fold (35 μM) excess,only marginally altered
same,staining pattern (confocal microscopy),[3],punctate cytoplasmic
cLDHB-A680: chicken LDHB labeled with A680 (Alexa 680),coincidence of staining with caspase activation (pan-caspase-FLICA),[8],entirely coincident
"FITC-labeled Annexin V: FITC-labeled Annexin V (Abcam), phosphatidylserine-binding apoptosis probe [reference compound]",apoptosis over background levels as measured with the probe,[1],only a mild increase
same,apoptotic cells as measured with the probe,[1]; staining in culture media,4%
same,staining of apoptotic cells in the presence of excess unlabeled Annexin V,[7],abrogated
same,cell staining over time (FACS),"[2]; HeLa, 5 μM camptothecin, 48 h",progressively stained positive
same,staining of apoptotic cells (FACS),[2]; [10],strongly positive
same,staining of apoptotic cells (FACS),[2]; calcium-free PBS,essentially not at all
same,staining pattern (confocal microscopy),[3],membranous
B1,uptake by apoptotic HeLa cells (FACS),[2]; 5 μM camptothecin,taken up
same,uptake by control untreated HeLa cells (FACS),[2],not by control untreated HeLa cells
B2,mean signal intensity (photons/sec/ROI) of anti-Fas antibody treated animals above IgG control antibody treated animals,[9],1.8 fold
B3,uptake by apoptotic HeLa cells (FACS),[2]; 5 μM camptothecin,taken up
same,uptake by control untreated HeLa cells (FACS),[2],not by control untreated HeLa cells
